Experimental findings from patent US10125118B2, “Heteroaryl compounds and their use as therapeutic drugs” (Dong-A Socio Holdings Co., Ltd., priority 2015, dated 2018) are described below.

Experiment [1] relates to CD8-MerTK in Ba/F3-CDM cells. The experiment can be described thus: In cell MER kinase assay, Ba/F3-CDM cell proliferation without IL-3 (Celltiter-Glo). Format: cell-based, murine. To be noted: 48 hours compound treatment, read-out: Cell growth inhibition (GI50). The protocol:
To establish an in cell kinase assay for MerTK kinase, the IL-3 dependent Ba/F3 cells of murine lymphoid origin was transfected with CD8-MerTK. […] For a routine cellular assay, Ba/F3-CDM cells were seeded at 2,000 cells per well in 384-well cell culture plate containing DMEM/10% FBS culture media and incubated for 24 hours before addition of compounds pre-diluted in culture media. Following compound treatment, cells were further incubated for 48 hours and the proliferation was measured. To discriminate a Ba/F3 growth inhibition by a specific inhibition of MerTK kinase following compound treatment vs growth inhibition due to a non-specific unintended cytotoxicity of compounds, we routinely carried out control sets of Ba/F3 cells in parallel that grown in IL3-supplemented growth media. In the presence of IL-3, the proliferation of Ba/F3 is no longer dependent on the MerTK activity. Cell growth and proliferation was measured with Celltiter-Glo™ system (Promega, USA) according to the manufacturer's instruction. The half-maximal growth inhibitory concentration (GI50) value was calculated with Prism6.0 software (GraphPad, USA).

In experiment [2] the target is human c-MER catalytic domain (Homo sapiens (Human), UniProt Q12866). The experiment can be described thus: LanthaScreen TR-FRET kinase assay, c-MER. To be noted: read-out: Mer TK inhibition (IC50); Biochemical IC50, TR-FRET, 10 uM ATP. In general terms: TR-FRET usually uses a lanthanide donor and a delayed reading to cut background.
Chain of human c-MER catalytic domain (Q12866 587-858): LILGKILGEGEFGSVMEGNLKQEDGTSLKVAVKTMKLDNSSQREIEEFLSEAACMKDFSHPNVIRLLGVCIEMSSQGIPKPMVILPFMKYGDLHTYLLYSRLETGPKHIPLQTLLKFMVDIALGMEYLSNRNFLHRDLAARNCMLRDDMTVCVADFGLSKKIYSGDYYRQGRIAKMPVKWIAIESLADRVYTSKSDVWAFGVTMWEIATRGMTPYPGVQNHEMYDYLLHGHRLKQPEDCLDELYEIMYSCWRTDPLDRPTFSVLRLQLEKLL

As for `Cn1cc(-c2cnc(N)c(C(=O)N[C@H]3CCC[C@@H]3OCc3ccc(C#CCCO)cc3)c2)cn1` [Example 249, 2-amino-N-((1S,2S)-2-((4-(4-hydroxybut-1-yn-1-yl)benzyl)oxy)-cyclopentyl)-5-(1-methyl-1H-pyrazol-4-yl)nicotinamide], the GI50 (in general, the concentration that inhibits growth by half) in experiment [1] is greater than 1 µM. Moreover, the IC50 – broadly, the concentration needed to halve the response being measured – in experiment [2] is less than 0.01 µM.
`CN1CCN(C(C)(C)c2ccc(-c3ccc(CO[C@H]4COC[C@@H]4NC(=O)c4cc(-c5cnn(C)c5)cnc4N)cc3)cc2)CC1` [Example 450, 2-amino-5-(1-methyl-1H-pyrazol-4-yl)-N-((3S,4R)-4-((4′-(2-(4-methylpiperazin-1-yl)propan-2-yl)-[1,1′-biphenyl]-4-yl)methoxy)tetrahydrofuran-3-yl)nicotinamide]: the GI50 in experiment [1] is less than 0.1 µM. The IC50 in experiment [2] is less than 0.01 µM.
The corresponding values for `CN1CCN(Cc2ccc(-c3ccc(CO[C@H]4CCC[C@@H]4NC(=O)c4cc(-c5ccc(CN6CCN(C)CC6)cc5)cnc4N)cc3)cc2)CC1` [Example 368] are less than 0.1 µM and less than 0.01 µM.
For the compound `CN1C[C@H](NC(=O)c2cc(-c3cnn(C)c3)cnc2N)[C@@H](OCc2ccc(-c3ccc(CN4CCN(CCO)CC4)cc3)cc2)C1` [Example 447, 2-amino-N-((3S,4S)-4-((4′-((4-(2-hydroxyethyl)piperazin-1-yl)-methyl)-[1,1′-biphenyl]-4-yl)methoxy)-1-methylpyrrolidin-3-yl)-5-(1-methyl-1H-pyrazol-4-yl)nicotinamide], the GI50 in experiment [1] was less than 0.1 µM. In experiment [2], the half-inhibitory concentration (IC50) was less than 0.01 µM.
The matching figures for `CN1CCN(Cc2ccc(-c3ccc(CO[C@H]4CCC[C@@H]4NC(=O)c4cc(-c5ccc(N6CCN(C)CC6)cc5)cnc4N)cc3)cc2)CC1` [Example 367, 2-amino-N-((1S,2S)-2-((4′-((4-methylpiperazin-1-yl)methyl)-[1,1′-biphenyl]-4-yl)methoxy)cyclopentyl)-5-(4-(4-methylpiperazin-1-yl)phenyl)-nicotinamide]: less than 0.1 µM and less than 0.01 µM.
Turning to `CN(C)C1CCN(Cc2ccc(-c3ccc(CO[C@H]4CCC[C@@H]4NC(=O)c4cc(-c5cnn(C)c5)cnc4N)cc3)cc2)C1` (stereo partly drawn) [Example 193, 2-amino-N-((1S,2S)-2-((4′-((3-(dimethylamino)pyrrolidin-1-yl)methyl)-[1,1′-biphenyl]-4-yl)methoxy)cyclopentyl)-5-(1-methyl-1H-pyrazol-4-yl)nicotinamide], the GI50 in experiment [1] was less than 0.1 µM. Also, the IC50 in experiment [2] was less than 0.01 µM.
The corresponding values for `CN1CCN(Cc2ccc(-c3ccc(CO[C@H]4CNC[C@@H]4NC(=O)c4cc(-c5cnn(C)c5)cnc4N)cc3)cc2C(F)(F)F)CC1` [Example 436, 2-amino-5-(1-methyl-1H-pyrazol-4-yl)-N-((3S,4S)-4-((4′-((4-methylpiperazin-1-yl)methyl)-3′-(trifluoromethyl)-[1,1′-biphenyl]-4-yl)methoxy)-pyrrolidin-3-yl)nicotinamide] are 0.5 to 1 µM and less than 0.01 µM.
The corresponding values for `CN1CCN(Cc2ccc(-c3ccc(CO[C@H]4CCC[C@@H]4NC(=O)c4cc(-c5cnn(C)c5)cnc4N)cc3)cc2O)CC1` [Example 199, 2-amino-N-((1S,2S)-2-((3′-hydroxy-4′-((4-methylpiperazin-1-yl)methyl)-[1,1′-biphenyl]-4-yl)methoxy)cyclopentyl)-5-(1-methyl-1H-pyrazol-4-yl)nicotinamide] are less than 0.1 µM and less than 0.01 µM.
The matching figures for `CN(C)CCCOc1ccc(-c2ccc(CO[C@H]3CCC[C@@H]3NC(=O)c3cc(-c4cnn(C)c4)cnc3N)cc2)cc1` [Example 246, 2-amino-N-((1S,2S)-2-((4′-(3-(dimethylamino)propoxy)-[1,1′-biphenyl]-4-yl)methoxy)cyclopentyl)-5-(1-methyl-M-pyrazol-4-yl)nicotinamide]: 0.1 to 0.5 µM and less than 0.01 µM.
With `Cn1cc(-c2cnc(N)c(C(=O)N[C@H]3CCC[C@@H]3OCc3cccc(Br)c3)c2)cn1` [Example 51, 2-amino-N-((1S,2S)-2-((3-bromobenzyl)oxy)cyclopentyl)-5-(1-methyl-1H-pyrazol-4-yl)nicotinamide], in experiment [2], the IC50 was greater than 1 µM.
In the case of `CN1CCN(Cc2ccc(-c3ccc(CO[C@H]4COCC4NC(=O)c4cc(-c5cnn(C)c5)cnc4N)cc3)cc2)CC1` (stereo partly shown) [Example 454], the IC50 in experiment [2] is less than 0.01 µM.
Same read-out and setting: for `Cn1cc(-c2cnc(N)c(C(=O)N[C@H](COCc3ccccc3)Cc3ccccc3)c2)cn1` [Example 117, (S)-2-amino-N-(1-(benzyloxy)-3-phenylpropan-2-yl)-5-(1-methyl-1H-pyrazol-4-yl)nicotinamide] the value was greater than 1 µM.
On to `Cc1ccc(CNc2ncc(-c3cnn(C)c3)cc2C(=O)N[C@H]2CCC[C@@H]2OCc2ccccc2)cc1C` [Example 72, N-((1S,2S)-2-(benzyloxy)cyclopentyl)-2-((3,4-dimethylbenzyl-)amino)-5-(1-methyl-1H-pyrazol-4-yl)nicotinamide], for which the IC50 in experiment [2] is greater than 1 µM.
The same measure, in the same setting: next, `Cn1cc(-c2cnc(N)c(C(=O)N[C@H]3CCC[C@@H]3OCc3cccc(-c4cccc(N)c4)c3)c2)cn1` [Example 170, 2-amino-N-((1S,2S)-2-((3′-amino-[1,1′-biphenyl]-3-yl)methoxy)-cyclopentyl)-5-(1-methyl-1H-pyrazol-4-yl)nicotinamide]: greater than 1 µM.
Consider `C[C@H](NC(=O)c1cc(-c2cnn(C)c2)cnc1N)C(=O)OCc1ccccc1` [Example 126, benzyl (2-amino-5-(1-methyl-1H-pyrazol-4-yl)nicotinoyl)-L-alaninate], for which, in experiment [2], the IC50 is greater than 1 µM.
Same read-out and setting: next, `Cn1cc(-c2cnc(N)c(C(=O)N[C@H]3CCC[C@@H]3OCc3ccccc3)n2)cn1` [Example 129, 3-amino-N-((1S,2S)-2-(benzyloxy)cyclopentyl)-6-(1-methyl-1H-pyrazol-4-yl)pyrazine-2-carboxamide]: greater than 1 µM.
Same read-out and setting: for `Cn1cc(-c2cnc(N)c(C(=O)N[C@H]3CCC[C@@H]3OCc3cccc(-c4cccc(CO)c4)c3)c2)cn1` [Example 171, 2-amino-N-((1S,2S)-2-((3′-(hydroxymethyl)-[1,1′-biphenyl]-3-yl)-methoxy)cyclopentyl)-5-(1-methyl-1H-pyrazol-4-yl)nicotinamide] the value was greater than 1 µM.
With `CN1CCN(Cc2ccc(-c3ccc(CO[C@H]4CCC[C@@H]4NC(=O)c4cc(-c5ccc(Cl)c(F)c5)cnc4N)cc3)cc2)CC1` [Example 373, 2-amino-5-(4-chloro-3-fluorophenyl)-N-((1S,2S)-2-((4′-((4-methylpiperazin-1-yl)methyl)-[1,1′-biphenyl]-4-yl)methoxy)cyclopentyl)nicotinamide], in experiment [1], the GI50 lay within 0.1 to 0.5 µM.
As to `Cn1cc(-c2cnc(N)c(C(=O)N[C@@H](COCc3ccccc3)Cc3ccccc3)c2)cn1` [Example 118, (R)-2-amino-N-(1-(benzyloxy)-3-phenylpropan-2-yl)-5-(1-methyl-1H-pyrazol-4-yl)nicotinamide], the IC50 in experiment [2] was greater than 1 µM.
The same measure, in the same setting: for `Nc1nc(Nc2ccccc2)ccc1C(=O)N[C@H]1CCC[C@@H]1OCc1ccccc1` [Example 457, 2-amino-N-((1S,2S)-2-(benzyloxy)cyclopentyl)-6-(phenylamino)-nicotinamide] the value was greater than 1 µM.
With `C[C@H](COCc1ccc(Cl)cc1)NC(=O)c1cc(-c2cnn(C)c2)cnc1N` [Example 102, (R)-2-amino-N-(1-((4-chlorobenzyl)oxy)propan-2-yl)-5-(1-methyl-1H-pyrazol-4-yl)nicotinamide], the IC50 in experiment [2] was greater than 1 µM.
For `CC(c1ccc(-c2ccc(CO[C@H]3CCC[C@@H]3NC(=O)c3cc(Cl)cnc3N)cc2)cc1)N1CCN(C)CC1` (stereo partly shown) [Example 231], the IC50 in experiment [2] was less than 0.01 µM.
The same measure, in the same setting: next, `CN(C)CCOc1ccc(-c2ccc(CO[C@H]3CCC[C@@H]3NC(=O)c3cc(-c4cnn(C)c4)cnc3N)cc2)cc1` [Example 245, 2-amino-N-((1S,2S)-2-((4′-(2-(dimethylamino)ethoxy)-[1,1′-biphenyl]-4-yl)methoxy)cyclopentyl)-5-(1-methyl-M-pyrazol-4-yl)nicotinamide]: less than 0.01 µM; `CC(C)C[C@@H](COCc1ccccc1)NC(=O)c1cc(-c2cnn(C)c2)cnc1N` [Example 111, (S)-2-amino-N-(1-(benzyloxy)-4-methylpentan-2-yl)-5-(1-methyl-1H-pyrazol-4-yl)nicotinamide]: greater than 1 µM; `Cn1cc(-c2cnc(N)c(C(=O)N[C@H]3CCC[C@H]3O)c2)cn1` (relative stereo) [Example 70, 2-amino-N-(cis-2-hydroxycyclopentyl)-5-(1-methyl-1H-pyrazol-4-yl)nicotinamide]: greater than 1 µM.
The same measure, in the same setting: for `C[C@@H](CNC(=O)c1cc(-c2cnn(C)c2)cnc1N)OCc1ccc(Cl)cc1` [Example 103, (S)-2-amino-N-(2-((4-chlorobenzyl)oxy)propyl)-5-(1-methyl-1H-pyrazol-4-yl)nicotinamide] the value was greater than 1 µM.
On the same count and under the same terms, next, `CC(C)[C@@H](COCc1ccccc1)NC(=O)c1cc(-c2cnn(C)c2)cnc1N` [Example 109, (S)-2-amino-N-(1-(benzyloxy)-3-methylbutan-2-yl)-5-(1-methyl-1H-pyrazol-4-yl)nicotinamide]: greater than 1 µM; `Cn1cc(-c2cnc(N)c(C(=O)N[C@H]3COC[C@@H]3N3CCOCC3)c2)cn1` (relative stereo) [Example 90, 2-amino-5-(1-methyl-1H-pyrazol-4-yl)-N-(trans-4-morpholinotetrahydrofuran-3-yl)nicotinamide]: greater than 1 µM.
